# Measured values reported in EPA's ToxValDB 9.5 (doi:10.2903/j.efsa.2007.110r).
# Key:
# Colinus virginianus = conditions: acute; oral; diet; mortality
# Daphnia magna = conditions: chronic/long-term; duration: 21 days; reproduction
# Canidae = conditions: subchronic; duration: 90 days; oral; Dog Other; organ weight
# Apis mellifera = conditions: acute; duration: 48 hours; oral; unspecified; mortality
# Oncorhynchus mykiss = conditions: acute; duration: 96 hours; mortality
# Pimephales promelas = conditions: chronic/long-term; duration: 28 days; growth
smiles,measurement,setting,value
N#Cc1c[nH]cc1-c1cccc2c1OC(F)(F)O2 [Fludioxonil],LD50,"Bird; acute, oral, unspecified, mortality",≥ 2000 mg/kg
same,NOEC,Bird; reproductive,11.1 mg/kg-day
same,LC50,"Tagia sp.; acute, mortality",> 1000 mg/kg
same,NOEC,Tagia sp.; chronic/long-term,20 mg/kg
same,LD50,"Rattus norvegicus; acute, oral, mortality",> 5000 mg/kg
same,NOAEL,"Rattus norvegicus; chronic, duration: 2 years, oral, diet, organ weight",37 mg/kg-day
same,NOAEL,"Rattus norvegicus; reproduction developmental, reproduction",212 mg/kg-day
same,LC50,Colinus virginianus,> 833 mg/kg-day
same,NOEC,Daphnia magna,0.005 mg/L
same,NOAEL,Canidae,58.5 mg/kg-day
same,LD50,Apis mellifera,> 100 µg/piece
same,LC50,Oncorhynchus mykiss,0.23 µg/mL
same,NOEC,Pimephales promelas,0.039 mg/L
